Test results published in PubChem BioAssay (NCI).
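Tested at 5 concentrations; 48 h exposure; 96-well plates; endpoints linearly interpolated, else capped at highest concentration. GI50 is the concentration that inhibits growth by half. Definition used: TGI = concentration required for complete inhibition of growth.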

Key:
Test in all cases: inhibition of tumour cell growth, NCI panel, 48 h
[1] = system: SN12C renal
[2] = system: CCRF-CEM leukemia
[3] = system: OVCAR-4 ovarian
[4] = system: NCI-H23 lung
[5] = system: NCI-H226 lung
[6] = system: SF-268 CNS
[7] = system: MALME-3M melanoma
[8] = system: IGROV1 ovarian
[9] = system: HOP-62 NSCLC
[10] = system: DU-145 prostate

Structure (SMILES)	TGI [1] [µM]	TGI [2] [µM]	TGI [3] [µM]	TGI [4] [µM]	TGI [5] [µM]	TGI [6] [µM]	TGI [7] [µM]	TGI [8] [µM]	TGI [9] [µM]	GI50 [1] [µM]	GI50 [2] [µM]	GI50 [3] [µM]	GI50 [4] [µM]	GI50 [5] [µM]	GI50 [6] [µM]	GI50 [7] [µM]	GI50 [8] [µM]	GI50 [9] [µM]	TGI [10] [µM]	GI50 [10] [µM]
COc1ccc(/C=N/N=C(\N)NO)c(OC)c1C	> 100	> 100	> 100	60.6	49.5	> 100	35.2	> 100	36.7											
COC(=O)[C@]12CC[C@@H](C)[C@H](C)[C@@H]1C1=CC[C@@H]3[C@@]4(C)C(C=O)=C[C@@](C)(COC(=O)c5ccco5)[C@@H]4[C@H](O)C[C@@]3(C)[C@]1(C)CC2	83.2	7.58	28.2	7.01	4.14	12.6	1.17	> 100	6.07	3.44	2.54	2.38	2.24	1.94	2.66	0.224	3.03	2.16		
COc1ccc(/C=C/c2cnccn2)cc1OC	> 10		> 10	> 10	> 10	> 10	> 10	> 10	> 10										> 10	
CN(C)CCNc1nc2ccccc2c2c(=O)c3cc(F)ccc3sc12	3	5		3.26	3.14		3.15	2.99	3.93	1.57	2.22		1.79	1.61		1.65	1.53	1.89	3.21	1.77
COc1ccc(-c2cc(-c3ccc(Nc4ccnc5cc(Cl)ccc45)cc3)nc(N3CCOCC3)n2)cc1			3.57	> 100	> 100	> 100						1.83	4.99	> 100	6.23					
COc1ccc2c(c1)C(C)Cc1c(ncnc1-n1cnc3ccccc31)N2C (stereo not drawn)	34	20.5	30.6	18.2	27.7	18.1		29.1	25	0.958	0.481	1.25	0.44	12.4	0.822		1.41	0.638	10.3	0.439
C1COCCSC2=C(SCCO1)SC(=C1SC3=C(SCCOCCOCCS3)S1)S2	> 100	> 100	> 100	> 100	> 100	> 100	> 100	> 100	> 100											
c1ccc(NCCSc2nc3ccccc3s2)cc1	> 100	31.7	> 100	> 100		> 100	> 100	> 100	> 100										> 100	
COc1cc(-c2nnc3n2NC=C(C(=O)O)S3)cc(OC)c1OC	> 100	> 67.5	> 87.5	> 100	> 100	> 100	> 100	> 100	> 100											
Cc1cc(NCCCCNc2ccnc3cc(Cl)ccc23)nc(Nc2ccc(C(=O)N3CCCCC3)cc2)n1		7.55	5.52	5.73	7.81	3.64		6.22	4.2		0.608	1.6	2.27	2.62	1.77		2.27	2.09	10.7	2.87
NC(CCc1ncc(C(=O)O)s1)C(=O)O (stereo not drawn)	> 100	> 100		> 100	> 100		> 100	> 100												
CCOC(=O)C1=C(Nc2ccc(Br)cc2)OCC1=O	> 100	> 100	> 100	> 100	> 100	> 100	> 100	> 100	> 100											
COc1ccc2nc3cc(Cl)ccc3c(Sc3ccc(NC(C)=O)cc3)c2c1	> 25.6	> 100	> 52.6	> 33.5	> 30.9	> 40	> 51.8	> 56	> 60.2											
Cc1c(Cl)cccc1NC(=O)c1cccc([N+](=O)[O-])c1O	97.4	34.7	> 70.1	29.4	56.3	> 100	38.7	> 83.2	29.3											
N#CC(C#N)=C1CCCOc2c1ccc1ccccc21	> 100	63.7	> 100	> 100		> 100	> 100	> 100	> 100	> 100	23	> 100	> 100		> 100	> 100	> 100	79.5	> 100	> 100
CC12CCC(=O)N1c1cccnc1N2 (stereo not drawn)	> 100	> 100	> 100	> 100	> 100	> 100	> 100	> 100	> 100											
COC(=O)c1c[nH]cc1CCCCc1c[nH]cc1C(=O)OC	> 100	> 100	> 100	> 100	> 100	> 100	> 100	> 100	> 100											
COc1cc(/C=N\O[Si](C)(C)C(C)(C)C)ccc1O[Si](C)(C)C(C)(C)C	> 100	> 100	> 100			> 100	> 100	> 100	> 100											
COc1cc(OC)c2sc(-c3ccc(-n4cncc4-c4cc(OC)c(OC)c(OC)c4)cc3)nc2c1	> 100	> 100	> 100	> 100			> 100	> 100	> 100	> 100	3.95	3.25	6.15			3.73	5.87	75.9	> 100	> 100
